Our source for the EC50 and IC50 values is patent publication US9624238B2, “4H-thieno[3,2-C]chromene-based inhibitors of Notum Pectinacetylesterase and methods of their use” (Lexicon Pharmaceuticals, Inc., priority 2011, dated 2017).

The target in assay [1] is T1, human notum pectinacetyltransferase (Homo sapiens, UniProt Q6P988).
T1 construct: made in house; unpurified conditioned medium used
T1 sequence (Q6P988 20-496): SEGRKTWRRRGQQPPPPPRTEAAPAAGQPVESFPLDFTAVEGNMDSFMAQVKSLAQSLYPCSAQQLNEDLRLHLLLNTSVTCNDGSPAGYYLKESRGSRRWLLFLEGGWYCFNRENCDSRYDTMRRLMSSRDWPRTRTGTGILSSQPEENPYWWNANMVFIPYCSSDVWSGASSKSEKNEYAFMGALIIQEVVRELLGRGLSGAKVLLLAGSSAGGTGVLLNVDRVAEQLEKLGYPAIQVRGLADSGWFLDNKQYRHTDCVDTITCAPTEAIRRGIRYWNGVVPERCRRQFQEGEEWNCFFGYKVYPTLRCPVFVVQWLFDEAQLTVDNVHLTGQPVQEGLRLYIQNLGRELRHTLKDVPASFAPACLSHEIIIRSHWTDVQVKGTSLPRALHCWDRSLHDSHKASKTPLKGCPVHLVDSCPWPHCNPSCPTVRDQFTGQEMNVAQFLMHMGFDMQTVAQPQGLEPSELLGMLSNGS
The experiment in a line: Reporter assay (CellSensor LEF/TCF-bla FreeStyle 293F cells, Wnt3a and notum conditioned media). It counts as cell-based.

For assay [2], the target named is T1, human notum pectinacetyltransferase. The experiment in a line: Binding assay (OPTS esterase substrate, fluorimetric). Type of assay: biochemical. Here is the method: Plasmid containing human notum pectinacetyltransferase in pcDNA3.1(+) vector was transfected into HEK (293 cells and clones were selecting by growing in presence of 400 ug/mL of G418. Condition media from these cells was used for the assay.

The mark [3] stands for this setting: given as numeric bound above the legend's highest class.
Setting [4] is: given as a numeric bound above the legend's range.

Broadly, the EC50 is the concentration at which the effect is half-maximal. A lower EC50 goes with a more potent agent. For orientation: IC50 means the point on the concentration scale where inhibition reaches its midpoint. Turning to `O=C(O)c1cc2c(s1)-c1ccccc1S(=O)(=O)CC2`, the EC50 in assay [1] (class symbols) is below 1 µM. In assay [2] (setting [3]), the IC50 was above 2 µM.

With `O=C(O)c1cc2c(s1)-c1ccccc1SCC2`, the EC50 in assay [1] (class symbols) was below 0.1 µM. In assay [2] (setting [3]), this molecule returned an IC50 above 2 µM.

In the case of `COc1cccc2c1OCc1cc(C(=O)O)sc1-2`, in assay [1] (class symbols), the EC50 was below 0.5 µM. This molecule displayed a concentration for half-maximal inhibition (IC50) in assay [2] (setting [4]) above 2 µM.

Turning to `COc1cccc2c1S(=O)(=O)Cc1cc(C(=O)O)sc1-2`, the concentration giving a half-maximal response (EC50) in assay [1] (class symbols) is below 1 µM. For the same molecule, the IC50 in assay [2] (setting [4]) is above 2 µM.

In assay [1] (class symbols), `COc1cccc2c1CCc1cc(C(=O)O)sc1-2` gave a concentration giving a half-maximal response (EC50) below 0.05 µM. Moreover, the 50% inhibitory concentration (IC50) in assay [2] (setting [3]) is above 2 µM.

As to `Cc1ccc(C)c2c1-c1sc(C(=O)O)cc1CS2(=O)=O`, the concentration for a half-maximal effect (EC50) in assay [1] (class symbols) was below 0.5 µM. Moreover, the IC50 in assay [2] (setting [4]) is above 2 µM.

In turn, `Cc1ccc(C)c2c1SCc1cc(C(=O)O)sc1-2` showed a concentration giving a half-maximal response (EC50) in assay [1] (class symbols) below 0.05 µM. Further, the IC50 in assay [2] (setting [4]) is above 2 µM.

With `COC(C)(C)CNC(=O)c1cc2c(s1)-c1ccc(Cl)c(F)c1OC2`, the EC50 in assay [1] (class symbols) was below 0.5 µM. The same molecule registered an IC50 in assay [2] (setting [3]) above 2 µM.

`O=C(NCCN1CCOCC1)c1cc2c(s1)-c1ccc(Cl)c(F)c1OC2` registered a 50% effective concentration (EC50) in assay [1] (class symbols) below 0.5 µM. The molecule further yielded an IC50 in assay [2] (setting [3]) above 2 µM.

`N#Cc1ccc2c(c1)OCc1cc(C(N)=O)sc1-2` came in with an EC50 in assay [1] (setting [4]) above 1 µM. Further, the half-maximal inhibitory concentration (IC50) in assay [2] (setting [4]) was above 2 µM.

`N#Cc1ccc2c(c1)CCc1cc(C(=O)O)sc1-2` returned a half-maximal effective concentration (EC50) in assay [1] (class symbols) below 1 µM. Further, the 50% inhibitory concentration (IC50) in assay [2] (setting [3]) is above 2 µM.

Turning to `Cc1cc(C)c2c(c1)OCc1cc(C(=O)O)sc1-2`, in assay [1] (class symbols), the EC50 was below 0.05 µM. In addition, the IC50 in assay [2] (setting [4]) was above 2 µM.

`NC(=O)c1cc2c(s1)-c1cc(Cl)c(C(F)(F)F)cc1OC2` displayed an EC50 in assay [1] (class symbols) below 0.5 µM. This molecule displayed a 50% inhibitory concentration (IC50) in assay [2] (setting [4]) above 2 µM.

Consider `N#Cc1ccc2c(c1)-c1sc(C(=O)O)cc1CC2`, for which the EC50 in assay [1] (class symbols) was below 1 µM. The molecule also yielded a half-inhibitory concentration (IC50) in assay [2] (setting [3]) above 2 µM.

On to `COc1ccc2c(c1)-c1sc(C(=O)O)cc1CS2(=O)=O`, for which, in assay [1] (class symbols), the 50% effective concentration (EC50) is below 0.5 µM. The IC50 in assay [2] (setting [4]) is above 2 µM.

On to `COc1ccc2c(c1)-c1sc(C(=O)O)cc1CC2`, for which, in assay [1] (class symbols), the concentration for a half-maximal effect (EC50) is below 0.5 µM. This molecule also showed an IC50 in assay [2] (setting [3]) above 2 µM.

In assay [1] (class symbols), `COCCNC(=O)c1cc2c(s1)-c1cc(F)ccc1OCC2` had an EC50 below 0.5 µM. The molecule further displayed a half-maximal inhibitory concentration (IC50) in assay [2] (setting [3]) above 2 µM.

In assay [1] (class symbols), `COCCNC(=O)c1cc2c(s1)-c1ccccc1CCC2` came in with an EC50 below 0.5 µM. The molecule further returned a 50% inhibitory concentration (IC50) in assay [2] (setting [3]) above 2 µM.

In turn, `CCOC(=O)c1cc2c(s1)-c1cccc(OC)c1CC2` had an EC50 in assay [1] (class symbols) below 0.5 µM. In assay [2] (setting [3]), this molecule came in with an IC50 above 2 µM.

For the molecule `CCOC(=O)c1cc2c(s1)-c1cc(OC)ccc1CC2`, in assay [1] (setting [3]), the EC50 was above 1 µM. This molecule also showed a half-inhibitory concentration (IC50) in assay [2] (setting [3]) above 2 µM.

The molecule `O=C(O)C1CN(C(=O)c2cc3c(s2)-c2ccc(Cl)c(Cl)c2OC3)CC1c1ccccc1F` (racemic) yielded a 50% effective concentration (EC50) in assay [1] (class symbols) below 0.05 µM. The molecule also registered an IC50 in assay [2] (class symbols) below 0.05 µM.

`Cc1cc(C)c2c(c1)-c1sc(C(=O)NCC(=O)O)cc1CC2` [2-(6,8-dimethyl-4,5-dihydronaphtho[1,2-b]thiophene-2-carboxamido)acetic acid] had an EC50 in assay [1] (class symbols) below 0.1 µM. The IC50 in assay [2] (class symbols) was below 1 µM.

In the case of `Nc1c(C(=O)O)sc2c1CSc1ccccc1-2` [3-amino-4H-thieno[3,2-c]thiochromene-2-carboxylic acid], the EC50 in assay [1] (class symbols) was below 0.05 µM. This molecule also returned an IC50 in assay [2] (class symbols) below 1 µM.

Consider `NC(=O)c1cc2c(s1)-c1ccccc1OC2` [4H-thieno[3,2-c]chromene-2-carboxamide], for which the EC50 in assay [1] (class symbols) was below 0.05 µM. The half-maximal inhibitory concentration (IC50) in assay [2] (class symbols) was below 0.05 µM.

The molecule `O=C(O)c1cc2c(s1)-c1cc(F)cc(F)c1S(=O)(=O)C2` [6,8-difluoro-4H-thieno[3,2-c]thiochromene-2-carboxylic acid 5,5-dioxide] returned an EC50 in assay [1] (class symbols) below 0.5 µM. In assay [2] (class symbols), this molecule had an IC50 below 1 µM.

`O=C(O)c1cc2c(s1)-c1cc(F)cc(F)c1[S+]([O-])C2` (stereo not drawn) [6,8-difluoro-4H-thieno[3,2-c]thiochromene-2-carboxylic acid 5-oxide]: in assay [1] (class symbols), the EC50 was below 0.5 µM. In assay [2] (setting [3]), this molecule showed an IC50 above 2 µM.

Take `Cc1cc(C)c2c(c1)-c1sc(C(N)=O)cc1CC2` [6,8-dimethyl-4,5-dihydronaphtho[1,2-b]thiophene-2-carboxamide]: the EC50 in assay [1] (class symbols) is below 0.05 µM. In assay [2] (class symbols), this molecule yielded a half-maximal inhibitory concentration (IC50) below 1 µM.
